4 molecules from ChEMBL document CHEMBL1133368, “Preparation of 5-(2,6-dideoxy-2-fluoro-alpha-L-talopyranosyloxy)-6-hydroxynap htho[2,3- f]quinoline-7,12-dione (FT-Alz), a new-type, potentially antitumor substance with various biological activities” (Bioorg Med Chem Lett, 2000) can be followed below.

Structures are written as SMILES.

The test system of one assay is Melanoma cell line. As to the kind of experiment: Growth inhibitory concentration of compound was measured against human melanoma cell line (HMV-1). It is filed as functional, cell-based.
In the next assay the test system is K562. Put plainly: Growth inhibitory concentration of compound was measured against human leukemia cell line (K562). It is filed as functional, cell-based.
For another assay, the system named is KB. Put plainly: Growth inhibitory concentration of compound was measured against human nasopharyngeal carcinoma cell line (KB). It is filed as functional, cell-based.
The subject of another assay is L1210. Put plainly: Growth inhibitory concentration of compound was measured against murine leukemia cell line (L1210). It is filed as functional, cell-based. The following applies: Mus musculus.
In a further assay the test system is MKN-1. Put plainly: Growth inhibitory concentration of compound was measured against human gastric adenocarcinoma cell line (MKN-1). It is filed as functional, cell-based.
The test system of assay [1] is P388. As to the kind of experiment: Growth inhibitory concentration of compound was measured against DOX resistant P388 cell line (P388 /DOX). It is filed as functional, cell-based. The conditions noted are these: Mus musculus.
Assay [2] has as its system P388. As to the kind of experiment: Growth inhibitory concentration of compound was measured against murine leukemia cell line (P388). The following applies: Mus musculus. It is filed as functional, cell-based.
The subject of another assay is T-24. As to the kind of experiment: Growth inhibitory concentration of compound was measured against human bladder carcinoma cell line (T24). It is filed as functional, cell-based.
Another assay concerns PC-14. Put plainly: Growth inhibitory concentration of compound was measured against human lung carcinoma cell line (PC-14). It is filed as functional, cell-based.
For another assay, the target named is DNA topoisomerase II (Homo sapiens, UniProt P11388+Q02880). Put plainly: The compound was tested for its inhibitory activity against topoisomerase II. It is filed as protein assay.

In the case of `COc1cccc2c1C(=O)c1c(O)c3c(c(O)c1C2=O)C[C@@](O)(C(=O)CO)C[C@@H]3O[C@H]1C[C@H](N)[C@H](O)[C@H](C)O1` [DOXORUBICIN], the IC50 in the assay with Melanoma cell line was 0.28 µM; in the assay with K562, 0.12 µM; in the assay on KB, 0.22 µM; in the assay with L1210, 0.05 µM; with MKN-1 it was 0.64 µM; with P388 [1] it was above 0.9 µM. For the same molecule, the IC50 in the assay on P388 [2] was 0.02 µM; in the assay with T-24, 0.64 µM; in the assay on PC-14, 1.9 µM.
Regarding `O=C1c2ccccc2C(=O)c2c1c(O)c(O)c1ncccc21`, the IC50 in the assay with Melanoma cell line was determined as 4.1 µM; with K562, 7.2 µM; in the assay with KB, 3 µM; in the assay on L1210, 7.2 µM; with MKN-1 it was 14 µM; with P388 [1], 3.3 µM. In addition, the IC50 with P388 [2] was 6.9 µM; with T-24, 14 µM; with PC-14 it was above 17 µM.
For the molecule `CC1OC(Oc2c(O)c3c(c4cccnc24)C(=O)c2ccccc2C3=O)C(F)C(O)C1O` (configuration not stated), the IC50 turned out to be 0.59 µM with Melanoma cell line; 0.71 µM in the assay on K562; 0.27 µM with KB; 0.32 µM in the assay with L1210; 0.73 µM with MKN-1; 0.82 µM with P388 [1]. Besides, the IC50 with P388 [2] came to 0.77 µM; with T-24, 0.36 µM; against DNA topoisomerase II, 5 µM; in the assay with PC-14, 0.71 µM.
With `CC1OC(Oc2c3c(c4cccnc4c2OC2OC(C)C(O)C(O)C2F)C(=O)c2ccccc2C3=O)C(F)C(O)C1O` (configuration not stated), the IC50 in the assay with Melanoma cell line is 7.5 µM; in the assay on K562, 5.8 µM; with KB, above 8.5 µM; in the assay on L1210, above 8.5 µM; with MKN-1 it was above 8.5 µM; with P388 [1] it was above 8.5 µM. Further, the IC50 with P388 [2], in the assay on T-24 and in the assay with PC-14 was above 8.5 µM throughout.
